Assay results published in US8314113B2, “Substituted dihydroquinazolines II” (Aicuris GmbH & Co. KG, priority 2003, dated 2012).
Counter-ions that a name gives are not always drawn. Like-named read-outs stand apart in the source and are kept apart here.

Experiments:
[1] = Cytotoxicity on NHDF cells in the anti-HCMV cytopathogenicity test; format: cell-based; conditions: NHDF cells (human prepuce fibroblasts), visual assessment, concentration at which no visible cytostatic effects are evident
Method: (§1) Anti-HCMV (Anti-Human Cytomegalovirus) Cytopathogenicity Tests The test compounds are employed as 50 millimolar (mM) solutions in dimethyl sulphoxide (DMSO). Ganciclovir, Foscarnet and Cidofovir are used as reference compounds. After addition of in each case 2 μl of the 50, 5, 0.5 and 0.05 mM DMSO stock solutions to 98 μl portions of cell culture medium in row […] for duplicate determinations, 1:2 dilutions are carried out with 50 μl portions of medium up to row 11 of the 96-well plate. The wells in rows 1 and 12 each contain 50 μl of medium. Then 150 μl portions of a suspension of 1×10^4 cells (human prepuce fibroblasts [NHDF]) are pipetted into each of the wells (row 1=cell control) and, in rows 2-12, a mixture of HCMV-infected and uninfected NHDF cells (M.O.I.=0.001-0.002), i.e. 1-2 infected cells-per 1000 uninfected cells. Row 12 (without substance) serves as virus control. The final test concentrations are 250-0.0005 μM. The plates are incubated at 37° C./5% CO2 for 6 days, i.e. until all the cells are infected in the virus controls (100% cytopathogenic effect [CPE]). The wells are then fixed and stained by adding a mixture of formalin and Giemsa's dye (30 minutes), washed with double-distilled water and dried in a drying cabinet at 50° C. The plates are then assessed visually using an overhead microscope (Plaque Multiplier from Technomara). The following data can be acquired from the test plates: CC50 (NHDF)=substance concentration in μM at which no visible cytostatic effects on the cells are evident by comparison with the untreated cell control;

[2] = test system: HCMV; assay: Anti-HCMV cytopathogenicity test (CPE inhibition); format: cell-based, human cytomegalovirus; conditions: for EC50: read-out: HCMV EC50; for SI HCMV (selectivity index = CC50 (NHDF)/EC50 (HCMV)): ratio CC50 (NHDF)/EC50 (HCMV)
Method: as §1, with “plates: EC50 (HCMV)=substance” for “plates: CC50 (NHDF)=substance”, “μM” for “μM at”, “which inhibits” for “which no visible cytostatic effects on”, “the CPE (cytopathic effect)” for “the cells are evident”, “by 50% compared” for “by comparison”, “untreated virus” for “untreated cell”

[3] = Human betaherpesvirus 5, NHDF, 144 h
[4] = Human betaherpesvirus 5, 144 h, HCMV-infected NHDF cells, M.O.I. 0.001-0.002, 6 days, 50% inhibition of CPE

Row | EC50 [2, 4] | Structure (SMILES) | CC50 at 6 days [1] | EC50 [2, 3] | SI HCMV (selectivity index = CC50 (NHDF)/EC50 (HCMV)) [2]
1 |  | COc1ccc(C(F)(F)F)cc1N1C(C2CCN(c3ccc(F)c(C)c3)CC2)=Nc2c(F)cccc2C1CC(=O)O (racemic) [Example 1, {8-Fluoro-2-[1-(4-fluoro-3-methylphenyl)piperidin-4-yl]-3-[2-methoxy-5-(trifluoromethyl)phenyl]-3,4-dihydroquinazolin-4-yl}acetic acid hydrochloride] | 24 µM | 0.03 µM | 800
2 | 0.15 µM | COc1ccc(C(F)(F)F)cc1N1C(C2CCN(c3ccc(F)cc3)CC2)=Nc2c(F)cccc2C1CC(=O)O (stereo not drawn) [Example 4, {8-Fluoro-2-[1-(4-fluorophenyl)piperidin-4-yl]-3-[2-methoxy-5-(trifluoromethyl)-phenyl]-3,4-dihydroquinazolin-4-yl}acetic acid] | 36 µM |  | 237
3 | 0.1 µM | COc1ccc(C(F)(F)F)cc1N1C(C2CCN(c3cccc(C)c3)CC2)=Nc2c(F)cccc2C1CC(=O)O (stereo not drawn) [Example 3, {8-Fluoro-3-[2-methoxy-5-(trifluoromethyl)phenyl]-2-[1-(3-methylphenyl)piperidin-4-yl]-3,4dihydroquinazolin-4-yl}acetic acid] | 31 µM |  | 310
4 |  | COc1ccc(C(F)(F)F)cc1N1C(C2CCN(c3ccc(F)c(C)c3)CC2)=Nc2c(F)cccc2C1CC(=O)O (stereo not drawn) [Example 2, {8-Fluoro-2-[1-(4-fluoro-3-methylphenyl)piperidin-4-yl]-3-[2-methoxy-5-(trifluoromethyl)phenyl]-3,4-dihydroquinazolin-4-yl}acetic acid hydrochloride] | 31 µM | 0.04 µM | 775
